According to patent US20240252488A1 (KOREA RESEARCH INSTITUTE OF CHEMICAL TECHNOLOGY, priority 2020, published 2024):

Assays:
FADD−/− Jurkat cells = assay: Necroptosis inhibition assay, TNF-α-induced necroptosis (CellTiter-Glo 2.0); type: cell-based, human; details: TNF-α 15 ng/mL; for Necroptosis inhibition assay (Rescue %) 1 μM: compound 1 μM; for Necroptosis inhibition assay (Rescue %) 10 μM: compound 10 μM
How it was run: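 FADD−/− Jurkat cells preincubated 30 min at room temperature with compound at 0.1, 1 and 10 μM final, then stimulated with TNF-α (15 ng/mL final) for 20–24 h at 37 °C, 5% CO2. Viability read as ATP luminescence; cytotoxicity and necroptosis inhibition rate calculated from luminescence values.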

MLKL [1] = molecular target: T1, MLKL (Homo sapiens, UniProt Q8NB16); assay: Measurement of binding affinity with MLKL receptor (competitive binding assay, Kd); parameters: made in house; host or cells: HEK 293 cell line (T7 phage in E. coli BL21-derived host is also described)
T1 sequence (Q8NB16 1-471): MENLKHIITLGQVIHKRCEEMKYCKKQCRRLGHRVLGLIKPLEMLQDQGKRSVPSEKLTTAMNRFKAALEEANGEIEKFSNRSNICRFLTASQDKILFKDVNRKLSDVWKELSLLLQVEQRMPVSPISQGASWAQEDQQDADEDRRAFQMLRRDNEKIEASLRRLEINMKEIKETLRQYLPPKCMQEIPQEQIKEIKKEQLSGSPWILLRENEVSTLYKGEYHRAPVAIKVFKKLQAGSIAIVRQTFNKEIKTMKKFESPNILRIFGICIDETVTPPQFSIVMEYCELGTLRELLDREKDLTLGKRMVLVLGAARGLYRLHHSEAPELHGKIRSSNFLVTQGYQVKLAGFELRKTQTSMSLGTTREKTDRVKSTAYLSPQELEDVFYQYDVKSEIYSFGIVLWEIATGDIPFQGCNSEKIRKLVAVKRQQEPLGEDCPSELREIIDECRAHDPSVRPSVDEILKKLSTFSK
How it was run: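 Competitive displacement of MLKL, expressed in HEK 293 cells and DNA-tagged for qPCR, from immobilized ligand on biotin-blocked beads. Compounds were added from 111× DMSO stocks (final DMSO 0.9%). Kinase left in the eluates was quantified by qPCR to give Kd.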

MLKL [2] = molecular target: T1, MLKL; assay: MLKL degradation assay in HepG2 cell line (western blot); type: cell-based; parameters: endogenous in cells; host or cells: HepG2 or HaCaT; details: cell line not given; for Degradation assay (Degradation %) 1 μM: compound 1 μM; for Degradation assay (Degradation %) 10 μM: compound 10 μM
How it was run: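 HepG2 cells were treated 20-24 h at 37 °C with compound at 1 or 10 μM final. RIPA lysates were normalized by BCA, and 10-15 μg protein per lane was resolved by SDS-PAGE. MLKL was detected by western blot with chemiluminescence.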

## Nc1ncc(-c2cnn([C@@H]3CCN(CCOCCOCCNC(=O)COc4ccc5c(c4)C(=O)N(C4CCC(=O)NC4=O)C5=O)C3)c2)nc1C(=O)OC(C(=O)Nc1ccc(F)cc1)c1ccccc1 (stereo partly drawn) [TDH-270, 2-((4-fluorophenyl)amino)-2-oxo-1-phenylethyl 3-amino-6-(1-((3R)-1-(2-(2-(2-(2-((2-(2,6-dioxopiperidin-3-yl)-1,3-dioxoisoindolin-5-yl)oxy)acetamido)ethoxy)ethoxy)ethyl)pyrrolidin-3-yl)-1H-pyrazol-4-yl)pyrazine-2-carboxylate]
FADD−/− Jurkat cells
  Necroptosis inhibition assay (Rescue %) 1 μM: 38.56%
  Necroptosis inhibition assay (Rescue %) 10 μM: 99.37%
MLKL [1]
  Kd: 6.1 nM
MLKL [2]
  Degradation assay (Degradation %) 1 μM: 19.32%
  Degradation assay (Degradation %) 10 μM: 39.14%

## Nc1ncc(-c2cnn(C3CCN(CCOC4CCN(C(=O)c5ccc(C(=O)NC6CCC(=O)NC6=O)cc5)CC4)CC3)c2)nc1C(=O)O[C@@H](C(=O)Nc1ccc(F)cc1)c1ccccc1 (stereo partly drawn) [TDH-538, (R)-2-((4-fluorophenyl)amino)-2-oxo-1-phenylethyl 3-amino-6-(1-(1-(2-((1-(4-((2,6-dioxopiperidin-3-yl)carbamoyl)benzoyl)piperidin-4-yl)oxy)ethyl)piperidin-4-yl)-1H-pyrazol-4-yl)pyrazine-2-carboxylate]
FADD−/− Jurkat cells; FADD−/− Jurkat cells
  Necroptosis inhibition assay (Rescue %) 1 μM: 24.02%
  Necroptosis inhibition assay (Rescue %) 10 μM: 21.52%
MLKL [1]
  Kd: 0.31 nM
MLKL [2]
  Degradation assay (Degradation %) 1 μM: 66.34%
  Degradation assay (Degradation %) 10 μM: 54.70%

## Nc1ncc(-c2cnn(C3CCN(CC4CCN(C(=O)C5CN(c6ccc7nnn(C8CCC(=O)NC8=O)c(=O)c7c6)C5)CC4)CC3)c2)nc1C(=O)O[C@@H](C(=O)Nc1ccc(F)cc1)c1ccccc1 (stereo partly drawn) [TDH-170, (R)-2-((4-fluorophenyl)amino)-2-oxo-1-phenylethyl 3-amino-6-(1-(1-((1-(1-(3-(2,6-dioxopiperidin-3-yl)-4-oxo-3,4-dihydrobenzo[d][1,2,3]triazin-6-yl)azetidine-3-carbonyl)piperidin-4-yl)methyl)piperidin-4-yl)-1H-pyrazol-4-yl)pyrazine-2-carboxylate]
FADD−/− Jurkat cells
  Necroptosis inhibition assay (Rescue %) 1 μM: 44.08%
  Necroptosis inhibition assay (Rescue %) 10 μM: 23.26%
MLKL [1]
  Kd: 4.6 nM
MLKL [2]
  Degradation assay (Degradation %) 1 μM: 60.57%
  Degradation assay (Degradation %) 10 μM: 58.27%

## Nc1ncc(-c2cnn(C3CCN(CC4CN(c5ccc6c(c5)C(=O)N(C5CCC(=O)NC5=O)C6=O)CCO4)CC3)c2)nc1C(=O)OC(C(=O)Nc1ccc(F)cc1)c1ccccc1 (stereo not shown) [TDH-311, 2-((4-fluorophenyl)amino)-2-oxo-1-phenylethyl 3-amino-6-(1-(1-((4-(2-(2,6-dioxopiperidin-3-yl)-1,3-dioxoisoindolin-5-yl)morpholin-2-yl)methyl)piperidin-4-yl)-1H-pyrazol-4-yl)pyrazine-2-carboxylate]
FADD−/− Jurkat cells
  Necroptosis inhibition assay (Rescue %) 1 μM: 57.09%
  Necroptosis inhibition assay (Rescue %) 10 μM: 39.01%
MLKL [1]
  Kd: 5.3 nM
MLKL [2]
  Degradation assay (Degradation %) 1 μM: 69.38%
  Degradation assay (Degradation %) 10 μM: 52.38%

## Nc1ncc(-c2cnn(C3CCN(CC4CCN(C(=O)Cc5cccc(NC6=CC(=O)N(C7CCC(=O)NC7=O)C6=O)c5)CC4)CC3)c2)nc1C(=O)O[C@@H](C(=O)Nc1ccc(F)cc1)c1ccccc1 (stereo partly drawn) [TDH-516, (R)-2-((4-fluorophenyl)amino)-2-oxo-1-phenylethyl 3-amino-6-(1-(1-((1-(2-(3-((1-(2,6-dioxopiperidin-3-yl)-2,5-dioxo-2,5-dihydro-1H-pyrrol-3-yl)amino)phenyl)acetyl)piperidin-4-yl)methyl)piperidin-4-yl)-1H-pyrazol-4-yl)pyrazine-2-carboxylate]
FADD−/− Jurkat cells; FADD−/− Jurkat cells
  Necroptosis inhibition assay (Rescue %) 1 μM: 17.46%
  Necroptosis inhibition assay (Rescue %) 10 μM: 5.65%
MLKL [1]
  Kd: 9.7 nM
MLKL [2]
  Degradation assay (Degradation %) 1 μM: 81.44%
  Degradation assay (Degradation %) 10 μM: 77.67%

## Nc1ncc(-c2cnn(C3CCN(CCCCCCCCCCNC(=O)COc4ccc5c(c4)C(=O)N(C4CCC(=O)NC4=O)C5=O)CC3)c2)nc1C(=O)O[C@@H](C(=O)Nc1ccc(F)cc1)c1ccccc1 (stereo partly drawn) [TDH-164, (R)-2-((4-fluorophenyl)amino)-2-oxo-1-phenylethyl 3-amino-6-(1-(1-(10-(2-((2-(2,6-dioxopiperidin-3-yl)-1,3-dioxoisoindolin-5-yl)oxy)acetamido)decyl)piperidin-4-yl)-1H-pyrazol-4-yl)pyrazine-2-carboxylate]
FADD−/− Jurkat cells
  Necroptosis inhibition assay (Rescue %) 1 μM: 27.84%
  Necroptosis inhibition assay (Rescue %) 10 μM: 10.5%
MLKL [1]
  Kd: 20 nM
MLKL [2]
  Degradation assay (Degradation %) 1 μM: 55.2%
  Degradation assay (Degradation %) 10 μM: 46.68%

## Nc1ncc(-c2cnn(C3CCN(C(=O)COCCOCCNc4cccc5c4C(=O)N(C4CCC(=O)NC4=O)C5=O)CC3)c2)nc1C(=O)O[C@@H](C(=O)Nc1ccc(F)cc1)c1ccccc1 (stereo partly drawn) [TDH-104, (R)-2-((4-fluorophenyl)amino)-2-oxo-1-phenylethyl 3-amino-6-(1-(1-(2-(2-(2-((2-(2,6-dioxopiperidin-3-yl)-1,3-dioxoisoindolin-4-yl)amino)ethoxy)ethoxy)acetyl)piperidin-4-yl)-1H-pyrazol-4-yl)pyrazine-2-carboxylate]
FADD−/− Jurkat cells
  Necroptosis inhibition assay (Rescue %) 1 μM: 25.6%
  Necroptosis inhibition assay (Rescue %) 10 μM: 22.88%
MLKL [1]
  Kd: 48 nM
MLKL [2]
  Degradation assay (Degradation %) 1 μM: 14.79%
  Degradation assay (Degradation %) 10 μM: 62.43%

## Nc1ncc(-c2cnn(C3CCN(C(=O)C4CCN(C(=O)CC5CCN(c6cccc7c6C(=O)N(C6CCC(=O)NC6=O)C7=O)CC5)CC4)CC3)c2)nc1C(=O)O[C@@H](C(=O)Nc1ccc(F)cc1)c1ccccc1 (stereo partly drawn) [TDH-374, (R)-2-((4-fluorophenyl)amino)-2-oxo-1-phenylethyl 3-amino-6-(1-(1-(1-(2-(1-(2-(2,6-dioxopiperidin-3-yl)-1,3-dioxoisoindolin-4-yl)piperidin-4-yl)acetyl)piperidine-4-carbonyl)piperidin-4-yl)-1H-pyrazol-4-yl)pyrazine-2-carboxylate]
FADD−/− Jurkat cells
  Necroptosis inhibition assay (Rescue %) 1 μM: 39.14%
  Necroptosis inhibition assay (Rescue %) 10 μM: 32.53%
MLKL [1]
  Kd: 2.7 nM
MLKL [2]
  Degradation assay (Degradation %) 1 μM: 93.73%
  Degradation assay (Degradation %) 10 μM: 91.38%

## Nc1ncc(-c2cnn(C3CCN(CC4CCN(CC(=O)NC5CCN(c6cccc7c6C(=O)N(C6CCC(=O)NC6=O)C7=O)CC5)CC4)CC3)c2)nc1C(=O)OC(C(=O)Nc1ccc(F)cc1)c1ccccc1 (stereo not shown) [TDH-236, 2-((4-fluorophenyl)amino)-2-oxo-1-phenylethyl 3-amino-6-(1-(1-((1-(2-((1-(2-(2,6-dioxopiperidin-3-yl)-1,3-dioxoisoindolin-4-yl)piperidin-4-yl)amino)-2-oxoethyl)piperidin-4-yl)methyl)piperidin-4-yl)-1H-pyrazol-4-yl)pyrazine-2-carboxylate]
FADD−/− Jurkat cells
  Necroptosis inhibition assay (Rescue %) 1 μM: 42.35%
  Necroptosis inhibition assay (Rescue %) 10 μM: 46.48%
MLKL [1]
  Kd: 4.9 nM
MLKL [2]
  Degradation assay (Degradation %) 1 μM: 32.16%
  Degradation assay (Degradation %) 10 μM: 27.8%

## Nc1ncc(-c2cnn(C3CCN(CCCCCCCCCCNc4ccc5nnn(C6CCC(=O)NC6=O)c(=O)c5c4)CC3)c2)nc1C(=O)O[C@@H](C(=O)Nc1ccc(F)cc1)c1ccccc1 (stereo partly drawn) [TDH-179, (R)-2-((4-fluorophenyl)amino)-2-oxo-1-phenylethyl 3-amino-6-(1-(1-(10-((3-(2,6-dioxopiperidin-3-yl)-4-oxo-3,4-dihydrobenzo[d][1,2,3]triazin-6-yl)amino)decyl)piperidin-4-yl)-1H-pyrazol-4-yl)pyrazine-2-carboxylate]
FADD−/− Jurkat cells
  Necroptosis inhibition assay (Rescue %) 1 μM: 23.48%
  Necroptosis inhibition assay (Rescue %) 10 μM: 14.8%
MLKL [1]
  Kd: 31 nM
MLKL [2]
  Degradation assay (Degradation %) 1 μM: 78.61%
  Degradation assay (Degradation %) 10 μM: 61.56%

## Nc1ncc(-c2cnn(C3CCN(CCCN4CCN(CC5CCN(C(=O)CNc6ccc7c(c6)C(=O)N(C6CCC(=O)NC6=O)C7=O)CC5)CC4)CC3)c2)nc1C(=O)O[C@@H](C(=O)Nc1ccc(F)cc1)c1ccccc1 (stereo partly drawn) [TDH-441, (R)-2-((4-fluorophenyl)amino)-2-oxo-1-phenylethyl 3-amino-6-(1-(1-(3-(4-((1-((2-(2,6-dioxopiperidin-3-yl)-1,3-dioxoisoindolin-5-yl)glycyl)piperidin-4-yl)methyl)piperazin-1-yl)propyl)piperidin-4-yl)-1H-pyrazol-4-yl)pyrazine-2-carboxylate]
FADD−/− Jurkat cells; FADD−/− Jurkat cells
  Necroptosis inhibition assay (Rescue %) 1 μM: 71.58%
  Necroptosis inhibition assay (Rescue %) 10 μM: −15.73%
MLKL [1]
  Kd: 0.69 nM
MLKL [2]
  Degradation assay (Degradation %) 1 μM: 87.59%
  Degradation assay (Degradation %) 10 μM: 87.7%
